Active and inactive are the calls of the source. No rule for the calls is given here.
Tested on: CCRIS mutagenicity, Ames/micronucleus/aberration tests
Assay: CCRIS mutagenicity studies
[1] = Test System: AMES SALMONELLA TYPHIMURIUM, Strain/Indicator: TA98, Metabolic Activation: NONE, Method: STANDARD PLATE
[2] = Test System: AMES SALMONELLA TYPHIMURIUM, Strain/Indicator: TA100, Metabolic Activation: NONE, Method: STANDARD PLATE
[3] = Test System: AMES SALMONELLA TYPHIMURIUM, Strain/Indicator: TA98, Metabolic Activation: RAT, LIVER, S-9, AROCLOR 1254, Method: STANDARD PLATE
[4] = Test System: AMES SALMONELLA TYPHIMURIUM, Strain/Indicator: TA100, Metabolic Activation: RAT, LIVER, S-9, AROCLOR 1254, Method: STANDARD PLATE
[5] = Test System: MOUSE LYMPHOMA, Strain/Indicator: L5178Y (TK+/TK-), Metabolic Activation: NONE, Method: SUSPENSION/PLATE
[6] = Test System: AMES SALMONELLA TYPHIMURIUM, Strain/Indicator: TA98, Metabolic Activation: NONE, Method: PREINCUBATION
[7] = Test System: AMES SALMONELLA TYPHIMURIUM, Strain/Indicator: TA100, Metabolic Activation: NONE, Method: PREINCUBATION

Measured: mutagenic call

Cc1ccc(/C=C/c2ccc([N+](=O)[O-])cc2)cc1
inactive: Test System: AMES SALMONELLA TYPHIMURIUM, Strain/Indicator: TA98 (NR), Metabolic Activation: NONE, Method: STANDARD PLATE inactive; negative | Test System: AMES SALMONELLA TYPHIMURIUM, Strain/Indicator: TA100 (NR), Metabolic Activation: NONE, Method: STANDARD PLATE inactive; negative
active: Test System: AMES SALMONELLA TYPHIMURIUM, Strain/Indicator: TA98 (NR), Metabolic Activation: S-9, Method: STANDARD PLATE active; positive | [1] active; positive | Test System: AMES SALMONELLA TYPHIMURIUM, Strain/Indicator: TA98, Metabolic Activation: RAT, LIVER, S-9, AROCLOR, Method: STANDARD PLATE active; positive | Test System: AMES SALMONELLA TYPHIMURIUM, Strain/Indicator: TA98, Metabolic Activation: S-9, Method: STANDARD PLATE active; positive | Test System: AMES SALMONELLA TYPHIMURIUM, Strain/Indicator: TA100 (NR), Metabolic Activation: S-9, Method: STANDARD PLATE active; positive | [2] active; positive | Test System: AMES SALMONELLA TYPHIMURIUM, Strain/Indicator: TA100, Metabolic Activation: RAT, LIVER, S-9, AROCLOR, Method: STANDARD PLATE active; positive | Test System: AMES SALMONELLA TYPHIMURIUM, Strain/Indicator: TA100, Metabolic Activation: S-9, Method: STANDARD PLATE active; positive

O=C1C(=O)c2cccc3cccc1c23
inactive: Test System: AMES SALMONELLA TYPHIMURIUM, Strain/Indicator: TA98, Metabolic Activation: HAMSTER, LIVER, S-9, AROCLOR 1254, Method: STANDARD PLATE inactive; negative | [2] inactive; negative | [4] inactive; negative
active: [1] active; positive | [3] active; positive | Test System: AMES SALMONELLA TYPHIMURIUM, Strain/Indicator: TA100, Metabolic Activation: HAMSTER, LIVER, S-9, AROCLOR 1254, Method: STANDARD PLATE active; positive | [5] active; positive. reevaluation of results: equivocal | Test System: MOUSE LYMPHOMA, Strain/Indicator: L5178Y (TK+/TK-), Metabolic Activation: RAT, LIVER, S-9, AROCLOR 1254, Method: SUSPENSION/PLATE active; positive. reevaluation of results: equivocal

Cc1c([N+](=O)[O-])c(C)c([N+](=O)[O-])c(C(C)(C)C)c1[N+](=O)[O-]
inactive: [6] inactive; negative | [1] inactive; negative | Test System: AMES SALMONELLA TYPHIMURIUM, Strain/Indicator: TA98, Metabolic Activation: RAT, LIVER, S-9, AROCLOR 1254, Method: PREINCUBATION inactive; negative | [3] inactive; negative | [7] inactive; negative | [2] inactive; negative | Test System: AMES SALMONELLA TYPHIMURIUM, Strain/Indicator: TA100, Metabolic Activation: RAT, LIVER, S-9, AROCLOR 1254, Method: PREINCUBATION inactive; negative | [4] inactive; negative | [5] inactive; negative | Test System: MOUSE LYMPHOMA, Strain/Indicator: L5178Y (TK+/TK-), Metabolic Activation: RAT, LIVER, S-9, AROCLOR 1242 AND 1254 (2:1), Method: SUSPENSION/PLATE inactive; negative | Test System: UDS RAT HEPATOCYTES, Strain/Indicator: THY INCORP, Metabolic Activation: NONE inactive; negative | Test System: UDS RAT HEPATOCYTES, Strain/Indicator: THY INCORP, Metabolic Activation: NONE, Method: IN VIVO-IN VITRO inactive; negative

Cc1ccc2c([N+](=O)[O-])cccc2c1
active: [6] active; positive

CC(=O)[O][Hg][c]1ccccc1
inactive: Test System: AMES SALMONELLA TYPHIMURIUM, Strain/Indicator: TA98, Metabolic Activation: HAMSTER, LIVER, S-9, AROCLOR 1254 (10%), Method: PREINCUBATION inactive; negative | [6] inactive; negative | Test System: AMES SALMONELLA TYPHIMURIUM, Strain/Indicator: TA98, Metabolic Activation: RAT, LIVER, S-9, AROCLOR 1254 (10%), Method: PREINCUBATION inactive; negative | Test System: AMES SALMONELLA TYPHIMURIUM, Strain/Indicator: TA100, Metabolic Activation: HAMSTER, LIVER, S-9, AROCLOR 1254 (10%), Method: PREINCUBATION inactive; negative | [7] inactive; negative | Test System: AMES SALMONELLA TYPHIMURIUM, Strain/Indicator: TA100, Metabolic Activation: RAT, LIVER, S-9, AROCLOR 1254 (10%), Method: PREINCUBATION inactive; negative | Test System: AMES SALMONELLA TYPHIMURIUM, Strain/Indicator: TA1535, Metabolic Activation: HAMSTER, LIVER, S-9, AROCLOR 1254 (10%), Method: PREINCUBATION inactive; negative | Test System: AMES SALMONELLA TYPHIMURIUM, Strain/Indicator: TA1535, Metabolic Activation: NONE, Method: PREINCUBATION inactive; negative | Test System: AMES SALMONELLA TYPHIMURIUM, Strain/Indicator: TA1535, Metabolic Activation: RAT, LIVER, S-9, AROCLOR 1254 (10%), Method: PREINCUBATION inactive; negative | Test System: AMES SALMONELLA TYPHIMURIUM, Strain/Indicator: TA1537, Metabolic Activation: HAMSTER, LIVER, S-9, AROCLOR 1254 (10%), Method: PREINCUBATION inactive; negative | Test System: AMES SALMONELLA TYPHIMURIUM, Strain/Indicator: TA1537, Metabolic Activation: NONE, Method: PREINCUBATION inactive; negative | Test System: AMES SALMONELLA TYPHIMURIUM, Strain/Indicator: TA1537, Metabolic Activation: RAT, LIVER, S-9, AROCLOR 1254 (10%), Method: PREINCUBATION inactive; negative

Source: PubChem BioAssay AID1259407 (Chemical Carcinogenesis Research Information System (CCRIS), 2018)
